Our source for the pest or weed control, efficacy and Emax values is USRE50663E1, “Heterocycle derivatives as pesticides” (Bayer Aktiengesellschaft, priority 2017, dated 2025).

Assay type in all cases: in vivo
Assay [1] has as its system larvae of the mustard beetle (Phaedon cochleariae). Description: Phaedon cochleariae spray test. Particulars: foliar, 168 h, 100 g/ha, after 7 days, Chinese cabbage leaf discs, read-out: efficacy. The protocol: (§1) Solvent: 78.0 parts by weight of acetone • • 1.5 parts by weight of dimethylformamide
(§2) Emulsifier: alkylaryl polyglycol ether
(§3) To produce a suitable active compound formulation, 1 part by weight of active compound is dissolved with the specified parts by weight of solvent and made up to the desired concentration with water containing an emulsifier concentration of 1000 ppm. To produce further test concentrations, the formulation is diluted with emulsifier-containing water.
Discs of Chinese cabbage leaves (Brassica pekinensis) are sprayed with an active compound formulation of the desired concentration and, after drying, populated with larvae of the mustard beetle (Phaedon cochleariae).
After 7 days, the efficacy in % is determined. 100% means that all the beetle larvae have been killed; 0% means that no beetle larvae have been killed.

Assay [2] relates to green peach aphid (Myzus persicae). Description: Myzus persicae spray test. Particulars: foliar, 120 h, 100 g/ha, after 5 days, Chinese cabbage leaf discs, read-out: efficacy. The protocol: Solvent: 78 parts by weight of acetone • • 1.5 parts by weight of dimethylformamide
as §2, §3
Discs of Chinese cabbage leaves (Brassica pekinensis) infested by all stages of the green peach aphid (Myzus persicae) are sprayed with an active compound formulation of the desired concentration.
After 5 days, the efficacy in % is determined. 100% means that all the aphids have been killed; 0% means that no aphids have been killed.

Assay [3] relates to adult cat fleas (Ctenocephalides felis). Description: Ctenocephalides felis oral test. Particulars: 48 h, 100 ppm in citrated cattle blood, after 2 days, read-out: efficacy (kill). The protocol: Solvent: dimethyl sulfoxide
To produce a suitable active compound formulation, 10 mg of active compound are mixed with 0.5 ml of dimethyl sulfoxide. Dilution with citrated cattle blood gives the desired concentration.
About 20 unfed adult cat fleas (Ctenocephalides felis) are placed into a chamber which is closed at the top and bottom with gauze. A metal cylinder whose bottom end is closed with parafilm is placed onto the chamber. The cylinder contains the blood/active compound formulation, which can be imbibed by the fleas through the parafilm membrane.
After 2 days, the kill in % is determined. 100% means that all of the fleas have been killed; 0% means that none of the fleas have been killed.

In assay [4] the test system is caterpillars of the fall armyworm (Spodoptera frugiperda). Description: Spodoptera frugiperda spray test. To be noted: foliar, 168 h, 100 g/ha, after 7 days, maize leaf discs, read-out: efficacy. The protocol:
as §1, §2, §3
Leaf discs of maize (Zea mays) are sprayed with an active compound formulation of the desired concentration and, after drying, populated with caterpillars of the fall armyworm (Spodoptera frugiperda).
After 7 days, the efficacy in % is determined. 100% means that all the caterpillars have been killed; 0% means that no caterpillar has been killed.

Assay [5] relates to greenhouse red spider mite (Tetranychus urticae). Description: Tetranychus urticae spray test, OP-resistant. Particulars: 20 g/ha, after 6 days, bean leaf discs. The protocol:
as §1, §2, §3
Discs of bean leaves (Phaseolus vulgaris) infested with all stages of the greenhouse red spider mite (Tetranychus urticae) are sprayed with an active compound formulation of the desired concentration.
After 6 days, the efficacy in % is determined. 100% means that all the spider mites have been killed; 0% means that no spider mites have been killed.

Assay [6] deals with L2 larvae of the banded cucumber beetle (Diabrotica balteata). Description: Comparative Diabrotica balteata drench test (DIABBA D). To be noted: soil, 192 h, 8 dat, read-out: % efficacy. The protocol:
(§4) Solvent: 7 parts by weight of dimethylformamide
(§5) Emulsifier: 2 parts by weight of alkylaryl polyglycol ether
(§6) To produce a suitable active ingredient formulation, 1 part by weight of active ingredient is mixed with the specified amounts of solvent and emulsifier, and the concentrate is diluted with water to the desired concentration, it being necessary to take into account the volume of soil which is drenched. It should be ensured that a concentration of 40 ppm of emulsifier in the soil is not exceeded. To produce further test concentrations, water is used for dilution.
In each case 5 maize corns (Zea mays) are sown into pots filled with earth, and the next day the pots are watered with the active compound preparation of the desired concentration. After one day, about 25 L2 larvae of the banded cucumber beetle (Diabrotica balteata) are added.
After 8 days, the efficacy in % is determined. 100% means that all 5 plants have germinated and grown; 0% means that none of the plants has emerged.

Assay [7] relates to caterpillars of the armyworm (Spodoptera frugiperda). Description: Comparative Spodoptera frugiperda drench test (SPODFR D). To be noted: soil, 336 h, 14 dat, read-out: % efficacy. The protocol:
as §4, §5, §6
Maize plants (Zea mays) in pots of soil are watered with an active ingredient formulation of the desired concentration and infected with caterpillars of the armyworm (Spodoptera frugiperda).
(§7) After the desired time, the kill in % is determined. 100% means that all caterpillars have been killed; 0% means that none of the caterpillars have been killed.

The test system of assay [8] is caterpillars of the cotton bollworm (Heliothis armigera). Description: Comparative Heliothis armigera spray test (HELIAR). Particulars: Helicoverpa armigera, 168 h, 7 dat, read-out: % efficacy. The protocol: (§8) Solvent: 14 parts by weight of dimethylformamide
as §2
(§9) To produce a suitable active compound formulation, 1 part by weight of active compound is dissolved with the specified parts by weight of solvent and made up to the desired concentration with water containing an emulsifier concentration of 1000 ppm. To produce further test concentrations, the formulation is diluted with emulsifier-containing water. If the addition of ammonium salts or/and penetrants is required, these are each added in a concentration of 1000 ppm to the formulation solution.
Cotton plants (Gossypium hirsutum) are sprayed with an active compound formulation of the desired concentration and, after drying, populated with caterpillars of the cotton bollworm (Heliothis armigera).
as §7

Assay [9] has as its system larvae of the mustard beetle (Phaedon cochleariae). Description: Comparative Phaedon cochleariae spray test (PHAECO). Particulars: 168 h, 7 dat, read-out: % efficacy. The protocol:
as §8, §2, §9
Cabbage leaves (Brassica oleracea) are sprayed with an active ingredient formulation of the desired concentration and populated with larvae of the mustard beetle (Phaedon cochleariae).
After the desired time, the kill in % is determined. 100% means that all the beetle larvae have been killed; 0% means that no beetle larvae have been killed.

For assay [10], the system named is green peach aphid (Myzus persicae). Description: Comparative Myzus persicae spray test (MYZUPE). To be noted: 144 h, 6 dat, read-out: % efficacy. The protocol: as §8, §2, §9
Bell pepper plants (Capsicum annuum) severely infested with the green peach aphid (Myzus persicae) are treated by spraying with the active ingredient formulation in the desired concentration.
After the desired time, the kill in % is determined. 100% means that all the animals have been killed; 0% means that no animals have been killed.

In assay [11] the test system is larvae of the diamondback moth (Plutella xylostella). Description: Comparative Plutella xylostella spray test (PLUTMA). Particulars: 168 h, 7 dat, read-out: % efficacy. The protocol: as §8, §2, §9
Cabbage leaves (Brassica oleracea) are sprayed with an active ingredient formulation of the desired concentration and infected with larvae of the diamondback moth (Plutella xylostella).
as §7

Assay [12] has as its system caterpillars of the armyworm (Spodoptera frugiperda). Description: Comparative Spodoptera frugiperda spray test (SPODFR). To be noted: 168 h, 7 dat, read-out: % efficacy. The protocol: as §8, §2, §9
Cotton leaves (Gossypium hirsutum) are sprayed with an active ingredient formulation of the desired concentration and populated with caterpillars of the armyworm (Spodoptera frugiperda).
as §7

Assay [13] deals with green peach aphid (Myzus persicae). Description: Comparative Myzus persicae drench test (MYZUPE D). Particulars: soil, 240 h, 10 dat, read-out: % efficacy. The protocol: as §4, §5, §6
Savoy cabbage (Brassica oleracea) in pots with soil and infested by all stages of the green peach aphid (Myzus persicae) is watered with an active ingredient formulation of the desired concentration.
After the desired period of time, the efficacy in % is determined. 100% means that all the aphids have been killed; 0% means that no aphids have been killed.

The structures appear in SMILES notation.

On to `CCS(=O)(=O)c1c(-c2nc3cc(C(F)(F)F)cnc3n2C)nc2cc(C(F)C3CC3)ccn12` (stereo not drawn) [Example I-22], for which the figures for the pest or weed control at 100 g/ha in assay [1], in assay [2] and in assay [4] were 100%, 90% and 100%, respectively. For the same compound, in [3], the pest or weed control at 100 ppm stood at 100%. In assay [5], the efficacy was 90%.

Consider `CCS(=O)(=O)c1c(-c2nc3cc(C(F)(F)F)cnc3n2C)nc2cc(C3CC3)ccn12` [known from WO 2016/162318, reference compound], for which the Emax at 0.8 ppm in [6] (0.8 ppm) was determined as 30%; in assay [9] (0.8 ppm), 0%; in assay [10], 0%; in assay [13], 0%. Also, the Emax at 4 ppm amounted to 70% in assay [6] (4 ppm) and 60% in assay [9] (4 ppm). The Emax at 0.16 ppm amounted to 40% in assay [7], 10% in assay [8], 45% in assay [11] and 65% in assay [12].
